According to publication PMC3187668 (Chemmedchem, 2011):

Biological target: PI3Kα (Homo sapiens, UniProt P42336)
Test: […]-ATP lipid kinase assay
Format: biochemical

Sequence of PI3Kα (P42336 whole entry): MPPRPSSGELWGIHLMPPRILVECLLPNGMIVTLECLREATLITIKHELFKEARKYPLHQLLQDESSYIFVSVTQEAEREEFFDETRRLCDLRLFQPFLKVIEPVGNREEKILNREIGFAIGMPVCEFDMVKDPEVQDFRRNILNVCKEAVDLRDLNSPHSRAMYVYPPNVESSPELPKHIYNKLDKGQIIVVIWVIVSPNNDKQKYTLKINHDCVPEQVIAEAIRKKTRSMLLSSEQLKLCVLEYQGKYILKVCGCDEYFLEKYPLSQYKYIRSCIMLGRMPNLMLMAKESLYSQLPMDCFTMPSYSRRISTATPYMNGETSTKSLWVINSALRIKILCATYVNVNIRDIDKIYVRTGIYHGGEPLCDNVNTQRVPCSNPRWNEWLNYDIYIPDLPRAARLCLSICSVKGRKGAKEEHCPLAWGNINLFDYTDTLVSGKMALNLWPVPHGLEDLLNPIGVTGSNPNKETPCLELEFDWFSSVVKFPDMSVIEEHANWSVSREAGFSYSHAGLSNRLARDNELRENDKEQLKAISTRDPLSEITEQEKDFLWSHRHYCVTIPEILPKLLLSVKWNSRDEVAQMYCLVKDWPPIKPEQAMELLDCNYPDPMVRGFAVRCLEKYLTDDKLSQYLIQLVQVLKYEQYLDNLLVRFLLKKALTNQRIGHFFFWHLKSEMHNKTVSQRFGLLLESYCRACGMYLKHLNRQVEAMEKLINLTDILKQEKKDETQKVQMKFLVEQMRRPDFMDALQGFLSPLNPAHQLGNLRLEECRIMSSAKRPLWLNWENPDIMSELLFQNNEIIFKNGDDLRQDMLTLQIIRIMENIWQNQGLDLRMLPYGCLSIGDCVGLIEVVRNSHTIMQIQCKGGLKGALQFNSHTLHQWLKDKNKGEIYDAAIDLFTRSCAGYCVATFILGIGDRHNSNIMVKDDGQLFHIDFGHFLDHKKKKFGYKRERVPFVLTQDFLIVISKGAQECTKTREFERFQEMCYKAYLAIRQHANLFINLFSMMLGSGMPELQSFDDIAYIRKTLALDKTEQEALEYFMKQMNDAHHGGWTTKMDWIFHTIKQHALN
Sequence of PI3Kα (P27986 2-724 partner): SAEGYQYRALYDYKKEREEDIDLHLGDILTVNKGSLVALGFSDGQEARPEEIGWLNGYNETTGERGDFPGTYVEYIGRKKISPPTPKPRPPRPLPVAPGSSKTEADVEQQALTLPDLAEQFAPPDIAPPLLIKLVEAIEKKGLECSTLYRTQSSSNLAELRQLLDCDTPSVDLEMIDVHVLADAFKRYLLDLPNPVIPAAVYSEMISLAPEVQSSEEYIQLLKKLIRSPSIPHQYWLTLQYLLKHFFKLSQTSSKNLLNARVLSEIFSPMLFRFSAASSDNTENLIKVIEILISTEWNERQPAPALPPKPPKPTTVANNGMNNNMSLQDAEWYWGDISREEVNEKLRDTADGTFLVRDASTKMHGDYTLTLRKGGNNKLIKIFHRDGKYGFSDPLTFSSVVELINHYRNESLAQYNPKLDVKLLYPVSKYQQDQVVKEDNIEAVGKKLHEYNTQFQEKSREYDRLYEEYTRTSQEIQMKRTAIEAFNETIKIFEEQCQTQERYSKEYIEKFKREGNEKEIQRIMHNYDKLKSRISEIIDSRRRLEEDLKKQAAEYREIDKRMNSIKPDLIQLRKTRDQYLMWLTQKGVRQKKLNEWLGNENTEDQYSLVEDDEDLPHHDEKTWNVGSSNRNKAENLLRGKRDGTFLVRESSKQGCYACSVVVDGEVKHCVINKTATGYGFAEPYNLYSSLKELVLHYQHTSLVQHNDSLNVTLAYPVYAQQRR

O=C1NC(=S)SC1=Cc1ccc2nccnc2c1 [compound 19, 19]
IC50: 3 nM
